# Test results: the METLIN SMRT retention time set (Domingo-Almenara et al. 2019)
# Test: gradient 5% acetonitrile 3 min, to 50% in 2 min, to 85% in 15 min, held 3 min, 100 µL/min
# Conditions: column: Zorbax Extend-C18 2.1 x 50 mm; eluents: water / acetonitrile, 0.1% formic acid
# Outline: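 Retention times of pure standards were taken from adduct peaks that were selected by computer and manually inspected. Over 3 months, mixtures of ~100 molecules were run by HPLC–quadrupole time-of-flight mass spectrometry in positive and negative ionization mode. The Zorbax Extend-C18 column (2.1 × 50 mm, 1.8 μm) ran at 100 μL/min in water and acetonitrile, each containing 0.1% formic acid, with 40 μL dead volume and 900 μL dwell volume.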
row,RP-LC retention time [s],SMILES
1,806,CCc1cccc(C)c1Nc1c(-c2ccc(N3CCOCC3)cc2)nc2ncccn12
2,955,Cc1ccc(-c2nnc(-c3nc(NCCc4c(C)noc4C)c4ccccc4n3)o2)cc1
3,781,CCN1c2ccccc2C(=O)NC12CCN(C(=O)Nc1ccccc1OC)CC2
4,834,CCCn1c(=O)c2c(nc3n2CCN3c2ccc(OC)cc2)n(C)c1=O
5,876,O=C(CCC1CCCC1)NCCC1CCN(C(=O)Nc2ccccc2)CC1
6,785,COCCCNC(=O)N1CCCC1c1nc(-c2ccccc2C)no1 (stereo unspecified)
7,894,COc1ccc(-c2c(C)noc2NC(C)=O)cc1S(=O)(=O)NCCc1ccc(Cl)cc1
8,587,Cc1ccc(CN2CC(c3ncc(C)n3Cc3ccccc3)C2)s1
9,787,CC(=O)Nc1ccc(SCc2c(F)cccc2Cl)nn1
10,781,Cc1nnc(NC(=O)CN2CCCCC2c2nc(C(C)C)no2)s1 (stereo unspecified)
11,779,Cc1ccc(CNC(=O)CN2CCN(Cc3ccccc3C)C(=O)C2=O)cc1
12,598,Cc1ccc(CNC(=O)C2(C)Cn3nc(C(=O)NCCCN4CCCCC4)cc3C(=O)N2C)cc1 (stereo unspecified)
13,795,COCc1nc(C2CCN(S(=O)(=O)Cc3ccccc3)C2)no1 (stereo unspecified)
14,643,COc1ccc(C(=O)N2CCC(n3c(-c4ccco4)nc4cccnc43)C2)cn1 (stereo unspecified)
15,730,O=C(Nc1ccc2c(c1)OCCO2)C1CCN(C(=O)C2Sc3ccccc3NC2=O)CC1 (stereo unspecified)
16,956,CCOc1ccccc1-c1noc(Cn2c(=O)n(-c3ccc(F)cc3)c(=O)c3sccc32)n1
17,1080,CCCn1c(=O)c(C)nc2cc(-c3noc(-c4ccc(C#N)cc4)n3)ccc21
18,726,COc1cccc(N2CCN(C(=O)CN3CCN(Cc4ccccc4)C(=O)C3=O)CC2)c1
19,503,COC(=O)N1CCN(CCNC(=O)NC2CCCCC2)CC1
20,836,Cc1cc(-c2nnc(C3CCC3)o2)c(C)n1CC(=O)Nc1ccc2c(c1)OCCO2
21,549,O=C(NCCN1CCOCC1)C(=O)Nc1ccccc1Cl
22,752,COc1cccc(C(=O)N2CCC3(CC2)NC(=O)c2cc(C)ccc2N3C)c1
23,817,O=S(=O)(NCC(O)c1ccc(C(F)(F)F)cc1)c1ccc2c(c1)OCCO2 (stereo unspecified)
24,643,COC(=O)c1ncoc1-c1ccccc1C(=O)N1CCCC1
25,562,CCC(C)NC(=O)Cc1c[nH]c2ncccc12 (stereo unspecified)
26,1060,Cc1cc(C)cc(NC(=O)C2CCCN(S(=O)(=O)c3cc(-c4noc(C)n4)cs3)C2)c1 (stereo unspecified)

row,RP-LC retention time [s],SMILES
1,877,Cc1ccc(NC(=O)N2CCC(n3cnc4c(Cl)cccc4c3=O)CC2)cc1C
2,1210,Cc1cc(N2CCCC2)n2nc(CN3CCN(c4ccccc4C)CC3)nc2n1
3,787,COc1cccc(-c2noc(NC3CC3)n2)c1
4,506,O=C(NCCc1ccncc1)C1CCc2sc(C(=O)N3CCCC3)cc2C1 (stereo unspecified)
5,706,CNC(=O)[C@@H]1C[C@H](Oc2ccccc2)CN1C(=O)c1n[nH]c2ccccc12
6,871,COc1ccc(NC(=O)N2CCCC2c2nc(-c3ccccc3OC)no2)c(OC)c1 (stereo unspecified)
7,914,CCc1nc2c(NC(=O)c3ccc(Br)cc3)cccn2n1
8,542,Cc1nnc2n1CCC(NC(=O)c1cscn1)CC2 (stereo unspecified)
9,900,CCCn1nc(CNC(=O)COc2ccccc2)c2ccccc21
10,960,O=C(Nc1ccc(S(=O)(=O)N2CCc3ccccc32)cc1)c1ccc(Br)o1
11,930,COc1ccc(-c2cc(C(=O)Nc3ccc(F)cc3)nn2C2CCS(=O)(=O)C2)cc1 (stereo unspecified)
12,1090,CCCn1c(=O)c(C)nc2cc(-c3noc(-c4ccc(OC)c(OC)c4)n3)ccc21
13,947,Cc1cc(C)n(-c2nc(CC(=O)N3CCN(c4ccccc4)CC3)cs2)n1
14,1070,COc1cccc(Cn2c(C(=O)N3CCC(C(=O)NC4CCCCCC4)CC3)cc3ccsc32)c1
15,1060,Cc1ccc(NC(=O)COc2cc(C(F)(F)F)c3c(C)nn(C)c3n2)c(C)c1
16,838,COc1ccc(-c2nc3cnccn3c2Nc2cccc(C)c2C)cc1OC
17,579,Cn1nc(C(=O)N2CCCCC2)c2c1CCN(C(=O)CCC(=O)NCCCN1CCCCC1)C2
18,601,COc1cccc(-c2noc(Cn3ccnc3C)n2)c1OC
19,865,COc1ccc(-c2cc(C(=O)N3CCCC3c3cc(C)on3)on2)cc1 (stereo unspecified)
20,811,Cc1ccccc1N1CCN(C(=O)c2ccc(CN3CCN(C(C)C)C(=O)C3=O)cc2)CC1
21,848,COc1ccc(-c2ncc(NC(=O)C3CCC3)cn2)cc1
22,966,O=c1ccc(-c2ccc3c(c2)OCO3)nn1CCc1nc(-c2ccccc2Cl)no1
23,858,CC1CCN(C(=O)c2cn(-c3cc(N4CCSCC4)ncn3)cn2)CC1
24,834,O=C(c1cc(F)ccc1Cl)N1CCN(c2ncccc2-c2nnc(C3CC3)o2)CC1
25,950,CCC(C)(C)C(=O)NC1CCN(C2=NS(=O)(=O)C(c3ccc(C)c(C)c3)=C2C)CC1

# Second part, the molecule before the results:
row,SMILES,RP-LC retention time [s]
1,O=C(NCc1cccnc1)C1CCN(C(=O)c2ncn3c2COC(c2ccccc2)C3)CC1 (stereo unspecified),568
2,COc1ccc(C)cc1N(C)C(=O)C1CCCN(c2ncnc3c2nc2n3CCCCC2)C1 (stereo unspecified),869
3,COc1ccc(OC)c(NC(=O)NC2CCN(c3ccc(C)cc3)C2=O)c1 (stereo unspecified),837
4,CCOC(=O)CNC(=O)C1CCN(c2ncccc2S(=O)(=O)N2CCCCC2)CC1,784
5,Cc1noc(CNC(=O)Cn2cnc3ccccc3c2=O)n1,576
6,CCN1C=C(C(=O)OCc2cccc(C)c2)C(C)=NS1(=O)=O,1030
7,O=C(c1cn2c(n1)CCCC2)N1CCN(c2ccc(Cl)cc2)CC1,648
8,COc1ccc(OC)c(NC(=O)Nc2c(-c3ccc(C)cc3)nc3ccccn23)c1,698
9,CCCCn1cc(S(=O)(=O)Nc2cccc(CC)c2)c2cccnc21,1070
10,COc1cc(Cn2c(N)c(C#N)c3nc4ccccc4nc32)cc(OC)c1OC,720
11,CCN1CCn2c(nc3cc(C(=O)NCC4CCCCC4)ccc32)C1=O,702
12,O=C(Cn1nc2c(N3CCCCCC3)nccn2c1=O)NCc1ccc2c(c1)OCO2,659
13,Fc1ccc(-c2nc(-c3cn(-c4ccccc4)nn3)no2)cc1,607
14,Cc1ccc(N2CC(c3noc(-c4ccc(F)cc4)n3)CC2=O)cc1 (stereo unspecified),1010
15,COc1ccc2c(c1)C1(CCN(C(=O)NCc3ccc(F)cc3)C1)C(=O)N2 (stereo unspecified),697
16,O=C(c1cn(-c2cc(N3CCSCC3)ncn2)cn1)N1CCN(c2ccccc2)CC1,877
17,O=C(c1cn2nc(Cl)ccc2n1)N1CCN(c2ccc(F)cc2)CC1,826
18,CCc1nc2cc3c(cc2n1CC(=O)N1C(C)CCCC1C)OCCO3 (stereo unspecified),668
19,Cc1c(C#N)c2ccccc2n1CC(=O)NC(C)c1ccc2c(c1)OCCCO2 (stereo unspecified),892
20,O=C(NCCCn1c(C(F)(F)F)nc2cccnc21)Nc1ccccc1,776

row,SMILES,RP-LC retention time [s]
1,CNC(=O)Oc1ccc(N(C)C)cc1C(C)C,642
2,Cc1[nH]c2ccccc2c1C(Nc1nc2ccccc2s1)c1ccccn1 (stereo unspecified),703
3,CCc1nc(-c2ccc3c(c2)CCN3C(=O)COc2ccccc2)no1,988
4,CC(=O)OC1CCN(C(=O)NC(C)(C)C)CC1,696
5,CCCCn1nnc(NCc2ccc(-c3cc(Cl)ccc3Cl)o2)n1,1220
6,O=C(COc1cc(O)c2c(=O)c3ccccc3oc2c1)OCc1ccccc1,1220
7,CCC(=O)N(C1CCOCC1)C1CCN(Cc2cn(C)c3ccccc23)CC1,638
8,O=C(NCc1noc(C2CCCC2)n1)c1ccc(F)cc1,798
9,Cc1cc(C)n(CCNC(=O)C(=O)Nc2ccc(Cl)cn2)n1,692
10,COc1cc(OC)c(NC(=O)Cn2ccc3sccc3c2=O)cc1Cl,775
11,COc1ccc(CC(=O)Nc2ccc3c(c2)Sc2ncccc2C(=O)N3C)cc1Cl,807
12,Cc1[nH]nc(-c2cc(S(=O)(=O)NCCc3ccccc3)c(C)s2)c1C,886
13,CN(C)c1ccc(CNC(=O)c2ccc3ncnc(N4CCCC4)c3c2)cc1,556
14,CCOC(=O)C1CCCN(S(=O)(=O)c2cc(-c3nc(C)c(C)s3)sc2C)C1 (stereo unspecified),1170
15,CN(C)C(=O)[C@H](O)[C@H](Cc1ccccc1)NC(=O)c1cc2cc(Cl)ccc2[nH]1,956
16,COc1ccccc1-c1[nH]ncc1CN1C[C@@H]2CCN(S(C)(=O)=O)C[C@]2(CF)C1,583
17,CCc1nc2cccnc2n1C1CCN(C(=O)CCCc2ccccc2)C1 (stereo unspecified),647
18,COCCn1nc2n(c1=O)CCC1(CC2)CCN(C(=O)C2CCOC2)CC1 (stereo unspecified),587
19,COc1ccc(-c2noc(C3CCCN3C(=O)c3ccco3)n2)cc1OC (stereo unspecified),780
20,Cc1nn(-c2ccccc2)c2ccn(CC(=O)N3CCN(c4ccc(Cl)cc4)CC3)c(=O)c12,948
